Assay results taken from patent publication US7511068B2, “Mercaptoimidazoles as CCR2 receptor antagonists” (Janssen Pharmaceutica, N.V., priority 2003, dated 2009).

Molecular target: T1, CCR2 receptor (Homo sapiens, UniProt P41597)
T1 construct: host or cells: THP-1 human monocytic cell line
T1 sequence (P41597 1-360 isoform P41597-2): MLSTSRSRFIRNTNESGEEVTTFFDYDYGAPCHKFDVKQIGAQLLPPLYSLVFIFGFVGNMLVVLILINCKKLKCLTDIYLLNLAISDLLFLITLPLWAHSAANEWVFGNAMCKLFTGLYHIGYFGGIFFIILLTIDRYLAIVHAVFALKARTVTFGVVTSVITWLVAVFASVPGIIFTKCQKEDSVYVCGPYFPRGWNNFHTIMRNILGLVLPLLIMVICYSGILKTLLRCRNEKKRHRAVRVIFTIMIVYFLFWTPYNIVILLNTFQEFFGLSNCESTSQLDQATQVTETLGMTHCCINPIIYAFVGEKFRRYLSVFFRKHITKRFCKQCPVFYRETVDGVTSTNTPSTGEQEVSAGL
Experiment: Inhibition of MCP-1 induced Ca-flux in human THP-1 cells
Format: cell-based
Conditions: inhibition of specific MCP-1 (10^-7 M hMCP-1) induced Ca2+ flux in human THP-1 cells; pIC50 = -log IC50 (molar)
Description: C. Pharmacological Example Inhibition of MCP-1 Induced Ca-flux in Human THP-1 Cells
MCP-1 binding to the CCR2 receptor induces a rapid and transient intracellular release of Ca^2+ (secondary messenger) in several cell lines (Charo et al, PNAS 1994). Free Ca^2+ levels can be measured using a Ca^2+ sensitive dye. When the CCR2 receptor is blocked with a CCR2 receptor antagonist, the MCP-1 induced release of Ca^2+ is inhibited.
Human THP-1 cells (monocytic cell line, ATCC TIB-202) were cultured in RPMI 1640 medium supplemented with 10% fetal calf serum (FCS), 1% L-Glutamine, penicillin (50 U/ml) and streptomycin (50 μg/ml) (all GIBCO BRL, Gent). After centrifugation, cells were loaded for 30 minutes with the Ca^2+ sensitive fluorescent dye Fluo-3 AM (Molecular Probes, Leiden, Netherlands) (2 million cells/ml in RPMI medium containing 4 μM Fluo-3 AM, 20 mM HEPES, 0.1% Bovine Serum Albumin (BSA) and 5 mM probenecid). Excess dye was removed by 3-fold washing with buffer (5 mM HEPES, 140 mM NaCl, 1 mM MgCl2, 5 mM KCl, 10 mM glucose, 2.5 mM probenecid, 1.25 mM CaCl2, 0.1% BSA; all further incubations were done in this buffer). Cells were plated at a density of 150 000 cells/well in dark-wall 96-well plates (Costar, Cambridge, Mass.) and sedimented by centrifugation (1 minute). The cells were pre-incubated for 20 minutes with test compound. Then, 10^−7 M hMCP-1 (Bachem, Bubendorf, Switserland) was added. Changes in intracellular free Ca^2+ concentration were measured using the Fluorescent Imaging Plate Reader (FLIPR, Molecular Devices, Munchen, Germany). Fluorescence was recorded every second from 10 seconds before the addition of the MCP-1 till 2 minutes after the addition (first minute: 60 records with 1 second intervals, second minute 20 records with 3 second intervals).
The maximal fluorescence obtained during this time frame was used for further calculations.
Table 4 reports pIC50 values obtained in the above-described test for compounds of formula (I). pIC50 defines −log IC50 wherein IC50 is the molar concentration of the test compound which inhibits 50% of specific MCP-1 induced Ca^2+ flux.
In the case of `CCC(c1ccc(Cl)c(Cl)c1)n1c(S)nc(C(=O)OC(C)(C)C)c1C#N` (stereo not shown) [Compound 78], the IC50 is reported as 813 nM. With `CCC(c1ccc(Cl)c(Cl)c1)n1c(C(=O)N(C)OC)c[nH]c1=S` (stereo not shown) [Compound 106] the IC50 was 1780 nM. `CCC(c1ccc(Cl)c(Cl)c1)n1c(S)nc(C(=O)NC)c1C(=O)NC` (stereo not shown) [Compound 107] gave an IC50 of 355 nM. `CCC(c1ccc(Cl)c(Cl)c1)n1c(C(=O)OC)c(C(=O)N2CCCCC2)[nH]c1=S` (stereo not shown) [Compound 108] gave an IC50 of 112 nM. `CCC(c1ccc(Cl)c(Cl)c1)n1c(C(=O)OC)c(C(=O)N2CCOCC2)[nH]c1=S` (stereo not shown) [Compound 109] showed an IC50 of 1150 nM. In the case of `CCC(c1ccc(Cl)c(Cl)c1)n1c(C(=O)OC)c(C(=O)NCCO)[nH]c1=S` (stereo not shown) [Compound 110], the IC50 is reported as 112 nM. For `CCC(c1ccc(Cl)c(Cl)c1)n1c(C(N)=O)c(COC)[nH]c1=S` (stereo not shown) [Compound 113], the IC50 was 240 nM. `CCC(c1ccc(Cl)c(Cl)c1)n1c(C(=O)NC)c(COC)[nH]c1=S` (stereo not shown) [Compound 114] showed an IC50 of 1780 nM. Molecule `CCC(c1ccc(Cl)c(Cl)c1)n1c(C(=O)NCCO)c(COC)[nH]c1=S` (stereo not shown) [Compound 115] has an IC50 of 1200 nM. With `CCC(c1cc(F)cc(F)c1)n1c(C(=O)OC)cnc1S` (stereo not shown) [Compound 118] the IC50 was 8320 nM. `CCC(c1ccc(Cl)c(Cl)c1)n1c(C(=O)NNC(C)=O)c[nH]c1=S` (stereo not shown) [Compound 119] gave an IC50 of 871 nM. Work on `CCC(c1ccc(Cl)c(Cl)c1)n1c(C(=O)NNC=O)c[nH]c1=S` (stereo not shown) [Compound 120] yielded an IC50 of 1050 nM. Molecule `CCC(c1ccc(Cl)cc1)n1c(C(=O)OC)cnc1S` (stereo not shown) [Compound 123] has an IC50 of 4680 nM. For `CCC(c1cc(F)cc(F)c1)n1c(C(=O)OC)c(C(=O)OC)[nH]c1=S` (stereo not shown) [Compound 124], the IC50 was 64.6 nM. `CCC(c1cc(Cl)cc(Cl)c1)n1c(C(=O)OC)c(C(=O)OC)[nH]c1=S` (stereo not shown) [Compound 130] gave an IC50 of 1660 nM. With `CCC(c1cc(F)c(F)c(F)c1)n1c(C(=O)OC)c[nH]c1=S` (stereo not shown) [Compound 135] the IC50 was 4270 nM. For `CCC(c1ccc(F)c(F)c1)n1c(C(=O)OC)c(C(=O)OC(C)(C)C)[nH]c1=S` (stereo not shown) [Compound 137], the IC50 was 2510 nM. Work on `CCC(c1ccc(Br)c(Br)c1)n1c(C(N)=O)c[nH]c1=S` (stereo not shown) [Compound 138] yielded an IC50 of 176 nM. In the case of `CCC(c1ccc(F)c(F)c1)n1c(C(=O)OC)c(C(N)=O)[nH]c1=S` (stereo not shown) [Compound 142], the IC50 is reported as 58.9 nM. With `CCC(c1cc(F)c(F)c(F)c1)n1c(C(N)=O)c[nH]c1=S` (stereo not shown) [Compound 143] the IC50 was 166 nM. Work on `CCC(c1cc(F)c(F)c(F)c1)n1c(C(=O)OC)c(C(=O)OC)[nH]c1=S` (stereo not shown) [Compound 148] yielded an IC50 of 33.5 nM. Work on `CCCC(c1ccc(Cl)c(Cl)c1)n1c(C(=O)OC)c(C(N)=O)[nH]c1=S` (stereo not shown) [Compound 149] yielded an IC50 of 32.4 nM. Molecule `COC(=O)c1[nH]c(=S)n(C(c2ccc(Cl)c(Cl)c2)c2ccc(Cl)c(Cl)c2)c1C(=O)OC` [Compound 150] has an IC50 of 468 nM. In the case of `CCC(=O)c1c[nH]c(=S)n1C(CC)c1ccc(Cl)c(Cl)c1` (stereo not shown) [Compound 151], the IC50 is reported as 299 nM.

Tested on: not given
Experiment: not given
Conditions: not given
`CCC(c1ccc(Cl)c(Cl)c1)n1c(S)nc(C(=O)OC(C)(C)C)c1C#N` (stereo not shown) [Compound 78] showed a melting point of 172.7 to 175.2 °C.
